Source: patent EP1808181A1, “Polysaccharide-cyclodextrin conjugates” (B. BRAUN MELSUNGEN AG, priority 2006, dated 2007)
≈ marks a conversion by molar mass, not a printed value.

Tests used:
Humane Erythrozyten = test: Haemolysis of washed human erythrocytes by cyclodextrin derivatives; type: cell-based, menschlicher; details: washed human erythrocytes (0,25%), 10 mM isotonic phosphate buffer pH 7,4, 37°C/30 min; read graphically against complete lysis in water; read-out: Cyclodextrin-Konzentration (frei bzw.gebunden) zur halb-maximalen Hämolyse
Description: (§1) Die Hämolyserate der in Tabelle III aufgeführten Cyclodextrin-Derivate wurde wie folgt bestimmt. Humane Erythrozyten wurden aus Citratblut durch Zentrifugation gewonnen (1000 x g / 10 Minuten), in 10 mM isotonem Phosphatpuffer (pH 7,4) aufgenommen und dreimal gewaschen und in diesem Puffer auf einen Hämatokrit von 5% eingestellt. Aliquote der gewaschenen Erythrozyten (0,1 ml) wurden zu 4 ml der in der Tabelle 3 aufgelisteten Cyclodextrin-Derivate (jeweils 5 unterschiedliche Konzentrationen) zugegeben, gemischt und 30 Minuten bei 37°C und gelegentlichem leichten Schütteln inkubiert. Nach abermaliger Zentrifugation (1000 x g / 10 Minuten) wurde das freigesetzten Hämoglobin im Überstand spektralphotometrisch bei 543 nm bestimmt. Die Hämolyseraten wurde aus den erhaltenen Absoptionswerten im Vergleich mit einer kompletter […] in Wasser ermittelt und die Cyclodextrin- Konzentrationen mit halbmaximaler Hämolyse graphisch ermittelt.
(§2) Tabelle III : Hämolyse gewaschener menschlicher Erythrozyten (0,25%) in 10 mM isotonem Phosphatpuffer (pH 7,4) bei 37°C/30 Minuten durch Cyclodextrin-Derivate

physchem = details: water
[1] = Haemolysis of washed human erythrocytes by cyclodextrin derivatives; type: cell-based, menschlicher; details: washed human erythrocytes (0,25%), 10 mM isotonic phosphate buffer pH 7,4, 37°C/30 min; read graphically against complete lysis in water; read-out: Cyclodextrin-Konzentration (frei bzw.gebunden) zur halb-maximalen Hämolyse
Description: as §1, §2

Compound	HC50 (Humane Erythrozyten) [mM]	also measured
2-HP-β-Cyclodextrin	10	–
CC(=O)[C@H]1CC[C@H]2[C@@H]3CCC4=CC(=O)CC[C@]4(C)[C@H]3CC[C@]12C [Progesteron]	–	solubility thermodynamic at 72 h (physchem): 15 µg/mL (≈ 47.7 µM)
OC[C@H]1O[C@@H]2O[C@H]3[C@H](O)[C@@H](O)[C@@H](O[C@H]4[C@H](O)[C@@H](O)[C@@H](O[C@H]5[C@H](O)[C@@H](O)[C@@H](O[C@H]6[C@H](O)[C@@H](O)[C@@H](O[C@H]7[C@H](O)[C@@H](O)[C@@H](O[C@H]8[C@H](O)[C@@H](O)[C@@H](O[C@H]1[C@H](O)[C@H]2O)O[C@@H]8CO)O[C@@H]7CO)O[C@@H]6CO)O[C@@H]5CO)O[C@@H]4CO)O[C@@H]3CO [β-Cyclodextrin]	–	HC50 at 0.5 h [1]: 5 mM
α-Cyclodextrin	11	–
γ--Cyclodextrin	30	–
